{"source": "patent US9844595B2", "about": "“Composition comprising a complex of (+)-catechin and amino acid for the treatment and prevention of cancer” (VALORE, priority 2013, dated 2017)", "procedure": "The experimental results described below were obtained on the basis of a study carried out in healthy human beings and in healthy Wistar rats weighing approximately 250 grams.\nAn acclimation period was observed before beginning the experiments.\nThe rats received an administration per os of a volume of 5 ml of a solution of active product.\nWith regard to taking the blood samples from the rats and from the human beings, the blood was collected in tubes internally coated with EDTA and was then centrifuged at 3000 rpm (revolutions per minute) at ambient temperature for 45 min, and then for 15 min at a temperature of 4° C. The plasma was then collected and stored at −70° C. before analysis.\nThe analytical technique (LC-MS/MS for Liquid Chromatography coupled to tandem Mass Spectrometry) for measuring the active substance in the blood was based on the method described by Mata-Bilbao et al., published in 2007 in the Journal of Agricultural and Food Chemistry, volume 55, page 8857.\nThe free (+)-catechin was extracted from the plasma with a solution of phosphoric acid, EDTA and ascorbic acid and was then purified by SPE (solid phase extraction); in particular, it is an Oasis™ HLB extraction which is analyzed by LC-MS/MS. The quantification was carried out according to a standard calibration procedure with (+/−)-catechin-2,3,4-^13C3 as internal standard (SI).\nThe procedure is identical with regard to the extraction and the quantification of free quercetin or ECGC in the blood.\nWith regard to the extraction and quantification of the total (+)-catechin, the procedure is the same as that applied to the free (+)-catechin, with the exception of the fact that an additional step prior to the purification by SPE is carried out.\nEach of the mixtures is then solubilized in water.\nEach of the mixtures is solubilized in water.", "note": "Where two headings read alike, the source gives them in different places."}
{"compound": "O=c1c(O)c(-c2ccc(O)c(O)c2)oc2cc(O)cc(O)c12", "note": "[QP, quercetin, reference compound]", "values": [{"measurement": "Δct^q (difference of ct to QP, related back to QP)", "setting": "Wistar, rat, in vivo, 25 mg/kg", "result": 0, "unit": "%"}]}
{"compound": "Cl.Cl.Cl.Cl.Cl.NCCCCC(N)C(=O)O.NCCCCC(N)C(=O)O.NCCCCC(N)C(=O)O.NCCCCC(N)C(=O)O.NCCCCC(N)C(=O)O.Oc1cc(O)c2c(c1)O[C@H](c1ccc(O)c(O)c1)[C@@H](O)C2", "note": "[1:5:5, reference compound]", "values": [{"measurement": "ct, calculated value", "setting": "rat, in vivo, 25 mg/kg", "result": 26, "unit": "k ng min/ml"}]}
{"compound": "Cl.Cl.Cl.Cl.Cl.NCCCCC(N)C(=O)O.NCCCCC(N)C(=O)O.NCCCCC(N)C(=O)O.NCCCCC(N)C(=O)O.NCCCCC(N)C(=O)O.Oc1cc(O)c2c(c1)O[C@H](c1ccc(O)c(O)c1)[C@@H](O)C2.Oc1cc(O)c2c(c1)O[C@H](c1ccc(O)c(O)c1)[C@@H](O)C2", "note": "[1:2.5:2.5]", "values": [{"measurement": "ct, value reported on the curve in FIG. 5", "setting": "rat, in vivo, 25 mg/kg", "result": 105, "unit": "k ng min/ml"}]}
{"compound": "Cl.Cl.Cl.NCCCCC(N)C(=O)O.NCCCCC(N)C(=O)O.NCCCCC(N)C(=O)O.Oc1cc(O)c2c(c1)O[C@H](c1ccc(O)c(O)c1)[C@@H](O)C2", "note": "[1:3:3, reference compound]", "values": [{"measurement": "ct, calculated value", "setting": "rat, in vivo, 25 mg/kg", "result": 38, "unit": "k ng min/ml"}]}
{"compound": "O=C(O[C@@H]1Cc2c(O)cc(O)cc2O[C@@H]1c1cc(O)c(O)c(O)c1)c1cc(O)c(O)c(O)c1", "note": "[EGCG, epigallocatechin gallate, reference compound]", "values": [{"measurement": "plasma levels measured (below the reliable limits of detection)", "setting": "EGCG, rats, per os, dose equivalent to 25 mg/kg polyphenol", "result": "below 250 ng/ml"}]}
{"compound": "Cl.Cl.NCCCCC(N)C(=O)O.NCCCCC(N)C(=O)O.O=c1c(O)c(-c2ccc(O)c(O)c2)oc2cc(O)cc(O)c12", "note": "[[Q:Lys:HCl/1:2:2], reference compound]", "values": [{"measurement": "Δct^q (difference of ct to QP, related back to QP)", "setting": "rat, in vivo, 25 mg/kg", "result": "+18%"}]}
